Measured values: patent publication US8410117B2, “Imidazopyrimidine derivatives” (Hoffmann-La Roche Inc., priority 2010, dated 2013)

Biological target: T1, human PDE10A (Homo sapiens, UniProt Q9Y233)
T1 construct: The human PDE10A full length assay; purchased Enzo Life Science, Lausen, Switzerland SE-534
Test: human PDE10A full length Scintillation Proximity Assay (SPA)
Assay type: biochemical
Details: 50 nM cGMP and 50 nM [3H]-cGMP, 20 minutes at room temperature; read-out: PDE10A inhibition IC50
Experimental: The following test was carried out in order to determine the activity of the compounds of the present invention. PDE10 activity of the compounds of the present invention was determined using a Scintillation Proximity Assay (SPA)-based method similar to the one previously described (Fawcett, L. et al., Proc Natl Acad Sci USA (2000) 97(7):3702-3707).
The human PDE10A full length assay was performed in 96-well micro titer plates. The reaction mixture of 50 μl contained 20 mM HEPES pH=7.5/10 mM MgCl2/0.05 mg/ml BSA (Sigma cat. #A-7906), 50 nM cGMP (Sigma, cat. #G6129) and 50 nM [^3H]-cGMP (GE Healthcare, cat. #TRK392 S.A. 13.2 Ci/mmol), 3.75 ng/well PDE10A enzyme (Enzo Life Science, Lausen, Switzerland cat #SE-534) with or without a specific test compound. A range of concentrations of the potential inhibitor was used to generate data for calculating the concentration of inhibitor resulting in 50% of the effect (e.g. IC50, the concentration of the competitor inhibiting PDE10A activity by 50%). Non-specific activity was tested without the enzyme. The reaction was initiated by the addition of the substrate solution (cGMP and [^3H]-cGMP) and allowed to progress for 20 minutes at room temperature. The reaction was terminated by adding 25 μl of YSi-SPA scintillation beads (GE Healthcare, cat. #RPNQ0150) in 18 mM zinc sulphate solution (stop reagent). After 1 h under shaking, the plate was centrifuged one minute at 170 g to allow beads to settle. Afterwards, radioactive counts were measured on a Perkin Elmer TopCount Scintillation plate reader.

T1 sequence (Q9Y233 1-779 isoform Q9Y233-1): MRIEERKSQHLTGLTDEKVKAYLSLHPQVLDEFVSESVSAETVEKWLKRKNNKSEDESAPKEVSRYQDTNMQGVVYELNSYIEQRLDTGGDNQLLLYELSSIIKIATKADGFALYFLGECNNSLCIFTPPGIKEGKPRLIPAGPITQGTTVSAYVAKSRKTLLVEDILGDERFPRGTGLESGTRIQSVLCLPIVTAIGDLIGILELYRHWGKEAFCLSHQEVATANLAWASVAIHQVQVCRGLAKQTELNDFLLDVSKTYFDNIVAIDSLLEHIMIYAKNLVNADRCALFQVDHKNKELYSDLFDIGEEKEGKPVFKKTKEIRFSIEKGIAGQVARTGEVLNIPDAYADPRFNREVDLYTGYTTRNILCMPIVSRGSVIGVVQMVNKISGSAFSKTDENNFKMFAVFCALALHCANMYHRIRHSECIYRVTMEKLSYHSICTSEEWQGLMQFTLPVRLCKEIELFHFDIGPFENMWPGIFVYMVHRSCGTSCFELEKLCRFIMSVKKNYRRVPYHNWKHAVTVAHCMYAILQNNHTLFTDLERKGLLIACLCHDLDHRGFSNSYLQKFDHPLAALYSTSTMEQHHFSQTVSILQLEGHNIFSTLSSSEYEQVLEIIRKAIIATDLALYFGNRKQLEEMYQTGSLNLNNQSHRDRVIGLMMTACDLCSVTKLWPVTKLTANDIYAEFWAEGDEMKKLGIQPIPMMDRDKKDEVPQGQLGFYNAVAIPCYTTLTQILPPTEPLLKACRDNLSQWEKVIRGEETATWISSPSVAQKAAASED

Row | SMILES | IC50 [nM]
1 | COc1ncccc1CNC(=O)c1cnn(C)c1C(=O)Nc1ccn2cc(-c3ccccc3)nc2n1 [Example 161, N4-((2-methoxypyridin-3-yl)methyl)-1-methyl-N5-(2-phenylimidazo[1,2-a]pyrimidin-7-yl)-1H-pyrazole-4,5-dicarboxamide] | 547
2 | Cn1ncc(Br)c1C(=O)Nc1ccn2cc(-c3ccccc3)nc2n1 [Example 6, 4-Bromo-2-methyl-2H-pyrazole-3-carboxylic acid (2-phenyl-imidazo[1,2-a]pyrimidin-7-yl)-amide] | 384
3 | CCCCn1ncc(Cl)c1C(=O)Nc1ccn2cc(-c3ccccc3)nc2n1 [Example 9, 2-Butyl-4-chloro-2H-pyrazole-3-carboxylic acid (2-phenyl-imidazo[1,2-a]pyrimidin-7-yl)-amide] | 44.6
4 | O=C(Nc1ccn2cc(-c3ccccc3)nc2n1)c1noc2c1CCCC2 [Example 18, 4,5,6,7-Tetrahydro-benzo[d] isoxazole-3-carboxylic acid (2-phenyl-imidazo[1,2-a]pyrimidin-7-yl)-amide] | 147
5 | Cc1cc(CNC(=O)c2cnn(C)c2C(=O)Nc2ccn3cc(-c4ccccc4)nc3n2)on1 [Example 127, 1-methyl-N4-((3-methylisoxazol-5-yl)methyl)-N5-(2-phenylimidazo[1,2-a]pyrimidin-7-yl)-1H-pyrazole-4,5-dicarboxamide] | 25.9
6 | O=C(Nc1ccn2cc(-c3ccccc3)nc2n1)c1cccnc1C(=O)N1CCC1 [Example 44, 2-(Azetidine-1-carbonyl)-N-(2-phenyl-imidazo[1,2-a]pyrimidin-7-yl)-nicotinamide] | 813
7 | Cn1ncc(C(=O)NC(C)(C)C)c1C(=O)Nc1ccn2cc(-c3ccccc3)nc2n1 [Example 138, N4-tert-butyl-1-methyl-N5-(2-phenylimidazo[1,2-a]pyrimidin-7-yl)-1H-pyrazole-4,5-dicarboxamide] | 130
8 | Cn1ncc(C(=O)NCc2ccon2)c1C(=O)Nc1ccn2cc(-c3ccccc3)nc2n1 [Example 146, N4-(isoxazol-3-ylmethyl)-1-methyl-N5-(2-phenylimidazo[1,2-a]pyrimidin-7-yl)-1H-pyrazole-4,5-dicarboxamide] | 212
9 | Cn1ncc(C(=O)NCc2nc3ccccc3o2)c1C(=O)Nc1ccn2cc(-c3ccccc3)nc2n1 [Example 170, N4-(benzo[d]oxazol-2-ylmethyl)-1-methyl-N5-(2-phenylimidazo[1,2-a]pyrimidin-7-yl)-1H-pyrazole-4,5-dicarboxamide] | 969
10 | Cn1ncc(C(=O)Nc2ccccc2)c1C(=O)Nc1ccn2cc(-c3ccccc3)nc2n1 [Example 133, 1-methyl-N4-phenyl-N5-(2-phenylimidazo[1,2-a]pyrimidin-7-yl)-1H-pyrazole-4,5-dicarboxamide] | 52.2
11 | Cc1cc(CNC(=O)c2cnn(C)c2C(=O)Nc2ccn3cc(-c4ccccc4)nc3n2)no1 [Example 143, 1-methyl-N-4-((5-methylisoxazol-3-yl)methyl)-N5-(2-phenylimidazo[1,2-a]pyrimidin-7-yl)-1H-pyrazole-4,5-dicarboxamide] | 162
12 | CN(CCF)C(=O)c1cnn(C)c1C(=O)Nc1ccn2cc(-c3cccc(F)c3)nc2n1 [Example 104, 2-Methyl-2H-pyrazole-3,4-dicarboxylic acid 4-[(2-fluoro-ethyl)-methyl-amide]3-{[2-(3-fluoro-phenyl)-imidazo[1,2-a]pyrimidin-7-yl]-amide}] | 29.6
13 | Cc1cc(Br)c(C)c(C(=O)Nc2ccn3cc(-c4ccccc4)nc3n2)n1 [Example 24, 4-Bromo-3,6-dimethyl-pyridine-2-carboxylic acid (2-phenyl-imidazo[1,2-a]pyrimidin-7-yl)-amide] | 321
14 | CCc1cc(CNC(=O)c2cnn(C)c2C(=O)Nc2ccn3cc(-c4ccccc4)nc3n2)on1 [Example 160, N4-((3-ethylisoxazol-5-yl)methyl)-1-methyl-N5-(2-phenylimidazo[1,2-a]pyrimidin-7-yl)-1H-pyrazole-4,5-dicarboxamide] | 459
15 | COCCNC(=O)c1cnn(C)c1C(=O)Nc1ccn2cc(-c3ccccc3)nc2n1 [Example 46, 2-Methyl-2H-pyrazole-3,4-dicarboxylic acid 4-[(2-methoxy-ethyl)-amide]3-[(2-phenyl-imidazo[1,2-a]pyrimidin-7-yl)-amide]] | 785
16 | Cc1nn(C)c(CNC(=O)c2cnn(C)c2C(=O)Nc2ccn3cc(-c4ccccc4)nc3n2)c1[N+](=O)[O-] [Example 140, N4-((1,3-dimethyl-4-nitro-1H-pyrazol-5-yl)methyl)-1-methyl-N5-(2-phenylimidazo[1,2-a]pyrimidin-7-yl)-1H-pyrazole-4,5-dicarboxamide] | 151
17 | Cn1ncc(C(=O)NC2CCC2)c1C(=O)Nc1ccn2cc(-c3ccccc3)nc2n1 [Example 59, 2-Methyl-2H-pyrazole-3,4-dicarboxylic acid 4-cyclobutylamide 3-[(2-phenyl-imidazo[1,2-a]pyrimidin-7-yl)-amide]] | 21.1
18 | Cc1cc(CNC(=O)c2cnn(C)c2C(=O)Nc2ccn3cc(-c4ccccc4)nc3n2)n[nH]1 [Example 121, 1-methyl-N-4-((5-methyl-1H-pyrazol-3-yl)methyl)-N5-(2-phenylimidazo[1,2-a]pyrimidin-7-yl)-1H-pyrazole-4,5-dicarboxamide] | 16.7
19 | COCCNC(=O)c1[nH]nnc1C(=O)Nc1ccn2cc(-c3ccccc3)nc2n1 [Example 150, N5-(2-methoxyethyl)-N4-(2-phenylimidazo[1,2-a]pyrimidin-7-yl)-1H-1,2,3-triazole-4,5-dicarboxamide] | 263

Compounds with a lower IC50, results first:

Row | IC50 [nM] | SMILES
20 | 3.4 | Cn1ncc(C(=O)N2CCC2)c1C(=O)Nc1ccn2cc(-c3cccc(OCF)c3)nc2n1 [Example 82, 4-(Azetidine-1-carbonyl)-N-(2-(3-(fluoromethoxy)phenyl)imidazo[1,2-a]pyrimidin-7-yl)-1-methyl-1H-pyrazole-5-carboxamide]
21 | 5.1 | Cn1ncc(C(=O)N2CC(F)C2)c1C(=O)Nc1ccn2cc(-c3ccccc3)nc2n1 [Example 115, 4-(3-fluoroazetidine-1-carbonyl)-1-methyl-N-(2-phenylimidazo[1,2-a]pyrimidin-7-yl)-1H-pyrazole-5-carboxamide]
22 | 6.1 | Cn1ncc(C(=O)N2CC(F)C2)c1C(=O)Nc1ccn2cc(-c3cccc(OCCF)c3)nc2n1 [Example 90, 4-(3-Fluoro-azetidine-1-carbonyl)-2-methyl-2H-pyrazole-3-carboxylic acid {2-[3-(2-fluoro-ethoxy)-phenyl]imidazo[1,2-a]pyrimidin-7-yl}-amide]
23 | 8.5 | COCCN(C)C(=O)c1cnn(C)c1C(=O)Nc1ccn2cc(-c3ccccc3)nc2n1 [Example 55, 2-Methyl-2H-pyrazole-3,4-dicarboxylic acid 4-[(2-methoxy-ethyl)-methyl-amide]3-[(2-phenyl-imidazo[1,2-a]pyrimidin-7-yl)-amide]]
24 | 12.9 | CCOC(=O)c1cnn(CC)c1C(=O)Nc1ccn2cc(-c3ccccc3)nc2n1 [Example 62, 1-Ethyl-5-(2-phenyl-imidazo[1,2-a]pyrimidin-7-ylcarbamoyl)-1H-pyrazole-4-carboxylic acid ethyl ester]
25 | 6.2 | Cn1ncc(C(=O)N2CCC2)c1C(=O)Nc1ccn2cc(-c3cccc(Br)c3)nc2n1 [Example 117, 4-(azetidine-1-carbonyl)-N-(2-(3-bromophenyl)imidazo[1,2-a]pyrimidin-7-yl)-1-methyl-1H-pyrazole-5-carboxamide]
26 | 6.5 | Cn1ncc(C(=O)N2CC(F)C2)c1C(=O)Nc1ccn2cc(-c3cccc(F)c3)nc2n1 [Example 92, 4-(3-Fluoro-azetidine-1-carbonyl)-2-methyl-2H-pyrazole-3-carboxylic acid [2-(3-fluoro-phenyl)-imidazo[1,2-a]pyrimidin-7-yl]-amide]
27 | 3.5 | Cn1ncc(C(=O)N2CCCC2)c1C(=O)Nc1ccn2cc(-c3ccccc3)nc2n1 [Example 48, 2-Methyl-4-(pyrrolidine-1-carbonyl)-2H-pyrazole-3-carboxylic acid (2-phenyl-imidazo[1,2-a]pyrimidin-7-yl)-amide]
28 | 4.8 | Cn1ncc(C(=O)N2CCC2)c1C(=O)Nc1ccn2cc(-c3cccc(Cl)c3)nc2n1 [Example 63, 4-(Azetidine-1-carbonyl)-2-methyl-2H-pyrazole-3-carboxylic acid [2-(3-chloro-phenyl)-imidazo[1,2-a]pyrimidin-7-yl]-amide]
29 | 14.7 | CCN(C)C(=O)c1cnn(C)c1C(=O)Nc1ccn2cc(-c3cccc(F)c3)nc2n1 [Example 97, 2-Methyl-2H-pyrazole-3,4-dicarboxylic acid 4-(ethyl-methyl-amide) 3-{[2-(3-fluoro-phenyl)-imidazo[1,2-a]pyrimidin-7-yl]-amide}]
30 | 3.3 | Cn1ncc(C(=O)N2CCC2)c1C(=O)Nc1ccn2cc(-c3ccccc3)nc2n1 [Example 29, 4-(Azetidine-1-carbonyl)-2-methyl-2H-pyrazole-3-carboxylic acid (2-phenyl-imidazo[1,2-a]pyrimidin-7-yl)-amide]
